Tests used:
p53 Y220C = molecular target: T1, p53 Y220C (Homo sapiens, UniProt P04637, Y220C); experiment: In vitro DNA binding activity assay (HTRF / TR-FRET) of recombinant His-tagged p53 Y220C DNA binding domain with biotin-labeled consensus DNA; assay type: biochemical; conditions: concentration required to increase DNA binding activity of p53 Y220C by 50%
T1 construct: made in house; host or cells: E. coli
Experimental: The ability of a compound of the disclosure to stabilize p53 Y220C and increase the DNA binding activity of p53 Y220C was measured by a homogeneous time-resolved fluorescence (HTRF) assay. Recombinant His-tagged p53 Y220C used in the HTRF assay was expressed in the bacterium E. coli. The recombinant protein was a truncation mutant containing only amino acids 94-312 of p53, which encompassed the DNA binding domain (DBD) of p53 (SEQ ID NO.: 1). The His-tagged p53 Y220C was tested for DNA binding ability with a consensus sequence of DNA (DNA duplex with a sequence of 5 ¢-[…]-3 ¢; SEQ ID NO.: 2). SEQ ID NO.: 2 was then conjugated with a biotin label and used in the activity assay.
The binding of the recombinant His-tagged p53 Y220C protein and the biotin-labeled consensus DNA was measured using fluorescence resonance energy transfer (FRET). For the FRET assay, the binding between the p53 mutant and the DNA sequence was measured by detecting the fluorescence of the interaction between an anti-His antibody conjugated to allophycocyanin (APC) and streptavidin conjugated to europium to detect the biotin-labeled DNA.
The test compounds were prepared as 4.5 mM stock solutions in dimethyl sulfoxide (DMSO). The compounds of the disclosure were used to test the stabilization of p53 Y220C and increase in DNA binding activity of p53 Y220C. The stock solutions were then serially diluted 3-fold in DMSO, and 1.2 μL of the diluted solutions was added to each well of a 384-well polypropylene black plate. 30 μL of a 181 nM solution of the recombinant His-tagged p53 Y220C protein and 12.1 nM of APC conjugated anti-His tag antibody in ice-cold Assay Buffer 1 (50 mM Tris-HCl, pH 7.4; 75 mM KCl; 0.75 mM DTT; and 0.2 mg/mL bovine serum albumin (BSA) was added to each well containing the test compounds.
As a background control, […] of Assay Buffer 1 containing 12.1 nM of APC anti-His antibody was also added into a second set of serially-diluted compound plates. […] The assay signals were monitored by reading excitation at 340 nm, and emission fluorescence at 615 nm and 665 nm on a plate reader.
Normalized time-resolved fluorescence resonance energy transfer (TR-FRET) assay signal (Rn) was calculated by the formula: Rn=[(A-Ba-CD)/(D-Bd)](Dc-Bd) where A was the fluorescence intensity of the sample at 665 nm; D was the fluorescence intensity of the sample at 615 nm; Ba and Bd were plate background readings at 665 nm and 615 nm, respectively; and Dc was the fluorescence intensity of 1.8 nM Eu-SA in the assay buffer at 615 nm.
The cross-talk factor (C) was determined by the following formula: C═(Ac—Ba)/(Dc-Bd) where Ac was the fluorescence intensity of 1.8 nM Eu-labeled anti-FLAG antibody in the assay buffer at 665 nm. […] The SC150 values were calculated using either Prism™ or ActivityBase™.

[1] = Pharmacokinetic analysis after single oral administration to male cynomolgus monkeys, with plasma levels of parent and glucuronidation metabolites; conditions: cynomolgus monkey, in vivo, 25 mg/kg
Experimental: The pharmacokinetics (PK) of a deuterated compound and a comparator compound were measured following a 2-phase single oral (PO) administration to male cynomolgus monkeys. Compound and metabolite levels were monitored for up to 48 hours following dosing.
A group of 3 non-naïve male cynomolgus monkeys were used in this 2-phase study with a 5-day washout period between each phase. Animals in Phases 1 or 2 were administered the compounds by single oral administration at 25 mg/kg. The vehicle used for the oral studies was 2% (w/v) hydroxypropylcellulose (HPC) w/v in water [“vehicle” ]. Administration was PO in fasted (overnight) animals. […] The body weights of the animals were in the range from 2.28 to 3.32 kg for males on the dosing day of Phase 1. All animals received a single oral gavage administration in each Phase.
Compound formulations were prepared in accordance with the following procedure: 257.0 mg of Compound C (4-[3-[4-[[(3S,4R)-3-fluoro-1-methyl-4-piperidyl]amino]-1-(2,2,2-trifluoroethyl)indol-2-yl]prop-2-ynylamino]-N-methyl-3-(methoxy)benzamide) was added to a pre-calibrated beaker, manually mixed with 1 mL of vehicle, stirred for 5 min to generate homogenous opaque suspension. An additional 40 mL of vehicle was added with manual mixing, and stirred for 5 min to generate a homogenous opaque suspension. An additional 9.218 mL of vehicle was added, and stirred overnight to generate a homogenous opaque suspension. 260.3 mg of Compound 3 (4-[3-[4-[[(3S,4R)-3-fluoro-1-methyl-4-piperidyl]amino]-1-(2,2,2-trifluoroethyl)indol-2-yl]prop-2-ynylamino]-N-methyl-3-(trideuteriomethoxy)benzamide) was added to a pre-calibrated beaker, manually mixed test article with 49.978 mL of vehicle, stirred for 30 min to generate a homogenous opaque suspension. Formulations were stored at room temperature for up to 15 days after preparation.
The detailed dosing and sampling regimens are described in the following table.
The concentrations of the compounds in all dosing solutions were determined by UPLC-UV [ACQUITY UPLC, ACQUITY UPLC BEH C8 1.7 m 2.1×100 mm Column, Mobile phase A: 0.1% FA & 2 mM HCOONH4 in water/ACN (v:v, 95:5), Mobile phase B: 0.1% FA & 2 mM HCOONH4 in ACN/water (v:v, 95:5)]. Three aliquots were taken from the bottom, middle and top regions of PO dosing solutions.
Plasma samples were collected at 0.25, 0.5, 1, 2, 4, 8, 12, 24 and 48 hours post-dose in Phases 1 and 2. Blank Plasma: Whole blood was collected from available stock animal into commercially available tubes containing K2-EDTA on wet ice and processed for plasma. The plasma was pooled to serve as blank monkey plasma. PK plasma: Approximately 0.5 mL of blood was collected at each time point via peripheral vessel from each study animal. The actual time for each sample collection was recorded. The deviations on sampling time were less than 1 minute for the time points pre-dose through 1 hour post-dose, and less than 5% of the nominal time for time points after 1 hour post-dose. All blood samples were transferred into commercial tube (Jiangsu Kangjian medical supplies Co., Ltd.) containing K2-EDTA (0.85-1.15 mg) and placed on wet ice until processed for plasma. Plasma samples were prepared within 1 hour of collection by centrifuging the blood samples at approximately 2-8° C., 3200×g for 10 minutes. Plasma samples of about 0.1 mL×2 aliquots (one for BA, and the other one for back up) for each time point were transferred into labeled polypropylene micro-centrifuge tubes and stored frozen in a freezer set to be maintained at −60° C. or lower until LC-MS/MS analysis. Concentrations of the compounds and metabolite in plasma samples were determined by a liquid chromatography tandem mass spectrometry (LC-MS/MS) method [Triple Quad 6500 Plus, ESI (+) ionization mode, MRM detection mode]. The plasma concentration of the compounds and metabolites in study animals was subjected to a non-compartmental pharmacokinetic analysis by using the Phoenix WinNonlin software (version 6.3 or above, Pharsight). […]

In the case of [2H]C([2H])([2H])NC(=O)c1ccc(NCC#Cc2cc3c(N[C@@H]4CCN(C)C[C@@H]4F)cccc3n2CC(F)(F)F)c(OC([2H])([2H])[2H])c1 [Compound 6, 4-[3-[4-[[(3S,4R)-3-fluoro-1-methyl-4-piperidyl]amino]-1-(2,2,2-trifluoroethyl)indol-2-yl]prop-2-ynylamino]-3-(trideuteriomethoxy)-N-(trideuteriomethyl)benzamide], the SC150 (p53 Y220C) is reported as “+++ (+++ = 0 nM < SC150 < 10 nM)”.

For [2H]C([2H])([2H])NC(=O)c1ccc(NCC#Cc2cc3c(N[C@@H]4CCN(C)C[C@@H]4F)cccc3n2CC(F)(F)F)c(OC)c1 [Compound 5, 4-[3-[4-[[(3S,4R)-3-fluoro-1-methyl-4-piperidyl]amino]-1-(2,2,2-trifluoroethyl)indol-2-yl]prop-2-ynylamino]-3-methoxy-N-(trideuteriomethyl)benzamide], the SC150 (p53 Y220C) was “++ (++ = 10 nM < SC150 < 50 nM)”.

With [2H]C([2H])([2H])Oc1cc(S(C)(=O)=O)ccc1NCC#Cc1cc2c(N[C@@H]3CCN(C([2H])([2H])[2H])C[C@@H]3F)cccc2n1CC(F)(F)F (racemic) [Compound 4, rac-N-[(3S,4R)-3-fluoro-1-(trideuteriomethyl)-4-piperidyl]-2-[3-[4-methylsulfonyl-2-(trideuteriomethoxy)anilino]prop-1-ynyl]-1-(2,2,2-trifluoroethyl)indol-4-ylamine] the SC150 (p53 Y220C) was “+++ (+++ = 0 nM < SC150 < 10 nM)”.

In the case of [2H]C([2H])([2H])Oc1cc(C(=O)NC)ccc1NCC#Cc1cc2c(N[C@@H]3CCN(C)C[C@@H]3F)cccc2n1CC(F)(F)F [Compound 3, 4-[3-[4-[[(3S,4R)-3-fluoro-1-methyl-4-piperidyl]amino]-1-(2,2,2-trifluoroethyl)indol-2-yl]prop-2-ynylamino]-N-methyl-3-(trideuteriomethoxy)benzamide], the “% of total analyte area, analyte Parent” value [1] is reported as 42.0%, the “AUC0-24 % Rel. to Cpd C value, analyte Parent” value [1] is reported as 160% and the AUC(0-inf) [1] is reported as 118 µg·h/mL. The AUCExtra [1] was 0.599%, the Cmax [1] was 10000 ± 4180 ng/mL and the Tmax [1] was 2 h. The half-life [1] was 6.37 h, the “increase in AUC over Compound C” value [1] was “about 60%” and the “reduction in glucuronidation metabolite (first named)” value [1] was 70%. For the same compound, the “reduction in glucuronidation metabolite (second named)” value [1] was 10%, the AUC(0-t) ([1]; AUC0-24) was 107 ± 29.2 µg·h/mL and the AUC(0-t) ([1]; AUC0-24, analyte Parent) was 107 µg·h/mL. For the same compound, the AUC(0-t) ([1]; AUC0-last) was 118 µg·h/mL.

With [2H]C([2H])([2H])Oc1cc(S(C)(=O)=O)ccc1NCC#Cc1cc2c(N[C@H]3CCN(C)C[C@H]3F)cccc2n1CC(F)(F)F (racemic) [Compound 10, Rac-N-((3R,4S)-3-fluoro-1-methylpiperidin-4-yl)-2-(3-((2-(methoxy-d3)-4-(methylsulfonyl)phenyl)amino)prop-1-yn-1-yl)-1-(2,2,2-trifluoroethyl)-1H-indol-4-amine] the SC150 (p53 Y220C) was “+++ (+++ = 0 nM < SC150 < 10 nM)”.
